Read-outs that look alike come from different tables or passages of the source.
How the values were obtained:
[1] = tested on: Huh7/Rep-Feo HCV replicon (HCV RNA replication); format: cell-based, Hepatitis C virus (strain HCV—N, genotype 1b)
Text: Development of the Huh7/Rep-Feo replicon assay. […] This replicon was derived from a chimpanzee infectious clone (strain HCV—N, genotype 1b). In this replicon, the structural genes have been replaced by a reporter gene. The chimeric reporter gene Feo encodes the firefly luciferase protein fused in-frame with neomycin phosphotransferase. This Huh7/Rep-Feo cell supports high levels of autonomous HCV RNA replication because it was derived from the HCV—N strain, which carries an adaptive mutation in NSSA that confers highlevel replication in tissue culture. Furthermore, the level of luciferase correlates well with levels of HCV RNA production, so that luciferase can be used as a reliable surrogate marker for HCV replication. The use of luciferase as a reporter permits quantitative and highthroughput detection of HCV replication levels. The specific use of firefly luciferase makes this replicon especially well-suited for automation, because the luciferase reagent can be added directly to the cell culture system prior to signal detection without the need for cell lysis, washing, or aspiration.
HCV Replicon System-Primary Screening. […] Briefly, this replicon harbors a subgenomic HCV genotype 1b sequence, fused to firefly luciferase, stably replicating under neomycin selection. Cells were propagated in Dulbecco's Modified Eagle's medium (DMEM) containing 10% fetal bovine serum (FBS) supplemented with 1% penicillin-streptomycin, and 500 μg of Geneticin (Invitrogen Corp., Carlsbad, Calif.)/mL. Cells were cultured in a 37° C., 5% CO2-humidified incubator for all experiments. To decrease day-today variability in the assay, a large homogenous population of subconfluent cells was passaged so that a similar lot of cells could be used throughout the HTS assay.
(§1) Primary Screening-HTS. Information about the library of known bioactive compounds that was screened and the general automated HTS protocol is available at http://www.broad.harvard.edu/chembio/index.html (see FIG. 10 for list of primary HTS with known bioactives library). Based on the results of optimization experiments in the 384-well plate format, the general HTS protocol was adapted as follows. Unless otherwise indicated, cells were incubated at all times in a humidified environment with 5% CO2 at 37° C. The assay was initiated by plating 30 μL of medium containing 2000 cells/well into white 384-well opaque-bottom plates (Nunc, Rochester, N.Y.) using an automated plate filler (Bio-Tek uFiller; Winsooki, Vt.) and allowing the cells to adhere for 24 hours. One hundred nL of compound stock solutions in DMSO was transferred from stock plates into the 384-well assay plates using an automated pin-based compound transfer robot (CyBio CyBi-Well vario; Woburn, Mass.). The final compound concentration in each well was estimated to be approximately 10-50 μM, with most compounds at 33 μM. The wells contained 0.33% DMSO by volume. The cells were then incubated for another 48 hours. The luminescent signal from each plate was detected using an automated plate reader (Perkin-Elmer Envision 1; Wellesley, Mass.). This screen was performed in duplicate. For negative controls, entire DMSO-treated control plates were employed, in addition to DMSO-only control wells that were incorporated into each compound assay plate. The cells were assayed for luciferase activity using the Bright-Glo Luciferase assay system (Promega), following the manufacturer's instructions. As a counter-screen, cell viability was assessed using the CellTiterGlo Luminescent cell viability assay (Promega) following the manufacturer's instructions.
Computational Data Analysis-Primary Screening. For each replicate, a mock-treatment distribution based on the total population of mock (DMSO) controls in that replicate was built (FIG. 11).

Huh7/Rep-Feo cells = assay: Primary HTS cell viability counter-screen (CellTiterGlo); format: cell-based, human; details: Table 2 antiviral hits of DOS set; approximately 10-50 μM, most at 33 μM; 48 hours
Method: as §1
Computational Data Analysis-Primary Screening. For each replicate, a mock-treatment distribution based on the total population of mock (DMSO) controls in that replicate was built (FIG. 11). Each compound was independently assigned a sign (ie, “+” or “−”) Z-score. Z-scores are calculated by dividing each background-subtracted, compound-treated well by the global standard deviation. A global standard deviation of the background-subtracted, mock-treated wells is calculated over the entire experiment. This distribution was determined to be consistent with experimental noise observed under cell-based assay conditions. The resulting collection of continuousvalued Z-scores represents the primary data set to be used for further analysis. The composite Z-score was calculated as a vector projection of each Z-score in duplicate onto an imaginary line of perfect reproducibility. Reproducibility is the cosine of the angle between each Z-score and that imaginary line; it is dimensionless and ranges from −1 to +1. […] The primary data were analyzed using the commercial software packages Pipeline Pilot (SciTegic, San Diego, Calif.) and SpotFire (SpotFire, Inc., Somerville, Mass.). The means of the negative, DMSO-only controls were considered the zero point.
Primary Screening—HTS: Unless otherwise indicated, cells were incubated at all times in a humidified environment with 5% CO2 at 37° C. The assay was initiated by plating 30 μl of medium containing 2,000 cells/well into white 384-well opaque-bottom plates (Nunc; Rochester, N.Y.) using an automated plate filler (Bio-Tek μFiller; Winsooki, Vt.) and allowing the cells to adhere for 24 hours. 100 nl of compound stock solutions in DMSO were transferred from stock plates into the 384-well assay plates using an automated pin-based compound transfer robot (CyBio CyBi-Well vario; Woburn, Mass.). The final compound concentration in each well was estimated to be approximately 10-50 μM, with most compounds at 33 μM. The wells contained 0.33% DMSO by volume. The cells were then incubated for another 48 hours. […]

OR6 cells = assay: Secondary assay cell viability (CellTiter-Glo); details: 48 hours
Method: Secondary Assays-Hit Validation. Several hits from primary HTS, as well as functionally related compounds, were purchased from Sigma (St. Louis, Mo.), Calbiochem (San Diego, Calif.), and Microsource (Gaylordsville, Conn.). […] Ten mM of stock solutions of the individual compounds to be tested was prepared in the appropriate solvent (DMSO, ethanol, or H2O, according to the manufacturer's information) and stored at −20° C. Cells were seeded into 96-well plates at a density of 2000 cells/well in 100 μL of medium. The cells were incubated for 24 hours at 37° C. to obtain the optimal level of adherence. Solutions of candidate hit compounds were added to wells to achieve final concentrations of 0.1, 1, 10, 50, and 100 μM. The final concentration of DMSO or ethanol in every well was 1% or less by volume. Mock solutions were used as a negative control. PEG-IFN and ribavirin were used as positive controls at various concentrations, alone and in combination. The plates were then incubated at 37° C. with 5% CO2 for 48 hours before they were analyzed. Luminescent signal was generated using the Renilla luciferase assay kit (Promega) according to the manufacturer's instructions. Signal was then detected using a LumiCount (Packard BioScience Company) luminometer. Cell viability was assessed using CellTiter-Glo (Promega), following the manufacturer's instructions. All experiments were performed in triplicate.
Secondary Assays-Data Analysis. Values were presented as a percentage of mock treated control, which was arbitrarily set at 100%. Data were expressed as the mean (±) SD. […] Synergy calculations were performed using CalcuSyn (Biosoft; Cambridge, England).
Secondary Assays—Hit Validation: 10 mM of stock solutions of the individual compounds to be tested were prepared in DMSO and stored at −20° C. Cells were seeded into 96-well plates at a density of 2,000 cells/well in 100 μl of medium. The cells were incubated for 24 hours at 37° C. to obtain the optimal level of adherence. Solutions of candidate hit compounds were added to wells to achieve varying final concentrations between 0.01 and 100 μM. The final concentration of DMSO or ethanol in every well was 1% or less by volume. Mock solutions were used as a negative control. Peginterferon-alfa-2b (PEG-Intron; Schering Corp.; Kenilworth, N.J.) and ribavirin (Sigma; St. Louis, Mo.) were used as positive controls at various concentrations, alone and in combination. The plates were then incubated at 37° C. with 5% CO2 for 48 hours before they were analyzed. Luminescent signal was generated using the Renilla luciferase assay kit (Promega; Madison, Wis.) according to the manufacturer's instructions. Signal was then detected using a LumiCount™ (Packard BioScience Company; Downers Grove, Ill.) luminometer. Cell viability was assessed using CellTiter-Glo (Promega; Madison, Wis.), following the manufacturer's instructions. All experiments were performed in triplicate. Values were presented as a percentage of mock treated control, which was arbitrarily set at 100%. Data were expressed as the mean±SD.
Secondary Assays—Data Analysis: Values were presented as a percentage of mock treated control, which was arbitrarily set at 100%. Data were expressed as the mean±SD.

[2] = Table 2 antiviral hits of DOS set, approximately 10-50 μM, most at 33 μM, 48 hours

SMILES | R-CompZ, compositeZ score for reporter gene assay [1, 2] | C-CompZ, compositeZ score for cell viability assay (Huh7/Rep-Feo cells) | concentrations at which cytotoxic effects were exhibited (OR6 cells) | cytotoxicity (in words) (OR6 cells) | R-CompZ, compositeZ score for reporter gene assay [1]
O=C1C2C=C(I)C(CC2c2ccccc2)[C@@]12CO2 (stereo partly shown) [SM_A5B5_2P118] | −3.6565 | −0.4963 |  |  | 
CC[C@@H](c1ccccc1)n1c(=O)n2n(c1=O)[C@H]1[C@H](O)[C@@H]3O[C@@H]3/C(=N\OC[C@@H](O)COCc3ccco3)[C@H]1CC2 [BUCMLD-XL-190] | −2.5928 | 0.4558 |  |  | 
Cc1c(C)c2c(c(C)c1O)CCC(C)(COc1ccc(CC3SC(=O)NC3=O)cc1)O2 (stereo not shown) [Troglitazone, troglitazone] |  |  | ≥ 50 µM |  | 
C#CCCCO/N=C1/[C@H]2CCn3c(=O)n([C@@H](CC)c4ccccc4)c(=O)n3[C@H]2[C@H](O)[C@@H]2O[C@H]12 [BUCMLD-XL-189] | −3.4882 | 0.2217 |  |  | 
O=C1C2C=C(I)C(CC2OCCCCCCO)[C@@]12CO2 (stereo partly shown) [SM_A5B2_2P142] | −2.7176 | 0.5666 |  |  | 
COC12C=C(Br)C(CC1c1cccc(C)c1)[C@@]1(CO1)C2=O (stereo partly shown) [SM_A4B6_2P123] | −3.4419 | −0.795 |  |  | 
COc1ccc2cc1Oc1ccc(cc1)C[C@H]1c3cc(c(OC)cc3CCN1C)Oc1c(OC)c(OC)cc3c1[C@H](C2)N(C)CC3 [tetrandrine] |  |  |  | cytotoxicity | 
O=C1C2C=C(Br)C(CC2c2ccccc2)[C@@]12CO2 (stereo partly shown) [SM_A1B5_2P24] | −3.38 | −0.856 |  |  | 
COc1ccc(O[C@H]2C=C[C@@H](c3ccccc3)O[C@@H]2CO/N=C2/[C@H]3CCn4c(=O)n(-c5ccccc5)c(=O)n4[C@H]3[C@H](O)[C@@H]3O[C@H]23)cc1 [BUCMLD-B10A1] | −4.4774 | −1.5319 |  |  | 
C[C@@H](O/N=C1/[C@H]2CCn3c(=O)n(-c4ccccc4)c(=O)n3[C@H]2[C@H](O)[C@@H]2O[C@H]12)c1cn([C@H](CO)Cc2ccccc2)nn1 [BUCMLD-B10A14] | −3.5069 | 1.128 |  |  | 
COc1ccc(O[C@H]2C=C[C@@H](c3ccccc3)O[C@@H]2CO/N=C(\C)CCN2CCc3nc(-c4ccccc4)c(-c4ccccc4)cc3C2)cc1 [BUCMLD-B13A1] | −3.1824 | −0.2035 |  |  | 
C=CC[C@@H]1C=C[C@H](O/N=C2/[C@H]3CCn4c(=O)n(-c5ccccc5)c(=O)n4[C@H]3[C@H](O)[C@@H]3O[C@H]23)[C@@H](CO)O1 [BUCMLD-B10A7] |  | 1.1731 |  |  | −3.3561
CC(=O)OC[C@H]1O[C@@H](O/N=C2/[C@H]3CCn4c(=O)n(-c5ccccc5)c(=O)n4[C@H]3[C@H](O)[C@@H]3O[C@H]23)[C@H](OC(C)=O)[C@@H](OC(C)=O)[C@@H]1OC(C)=O [BUCMLD-B10A13] | −2.8629 | 1.0278 |  |  | 
O=c1n(-c2ccccc2)c(=O)n2n1CC[C@@H]1/C(=N/OC[C@@H](O)COCc3ccco3)[C@H]3O[C@H]3[C@@H](O)[C@@H]12 [BUCMLD-B10A8] | −3.7511 | 1.1582 |  |  | 
C#CCCCO/N=C1/[C@H]2CCn3c(=O)n(-c4ccccc4)c(=O)n3[C@H]2[C@H](O)[C@@H]2O[C@H]12 [BUCMLD-XL-184] | −3.0142 | −0.1464 |  |  | 
